Data taken from patent EP0726257A1, “1-(Hetero)Arylvinyl-5H-2,3-benzodiazepine derivatives useful for the treatment of central nervous system disorders, and benzopyrylium intermediates for their preparation” (EGIS GYOGYSZERGYAR RT., priority 1995, dated 1996).
Like-named read-outs stand apart in the source and are kept apart here.

Legend:
[1] = system: spontaneous motor activity (SMA) in mice; assay: Behavioural effects according to Irwin (decrease in spontaneous motor activity); format: in vivo; design: key: ++ strong; + moderate; +- slight decrease in spon-taneous motor activity [SMA]
Experimental: (§1) The behavioural effects of 1-[2'-(substituted) vinyl]-5H-2,3-benzodiazepine derivatives according to the invention and of reference substances were measured according to the method of Irwin (Psychopharmacology, 13, 222 [1968]). The results and the acute toxicity data (dead/treated animals, shown in brackets) can be seen in the following Table II
(§2) From the above Table II it can be taken that the 1-[2'-(substituted) vinyl]-5H-2,3-benzodiazepine derivatives according to the invention considerably decrease the spontaneous motor activity (SMA) in mice after intraperitoneal or oral administration.

[2] = system: Catalepsy in mice; assay: Cataleptic effect in mice (Schlichtegroll); format: in vivo; conditions: p.o.
Experimental: (§3) The cataleptic effect of the compounds was measured both in mice (Schlichtegroll: Arzneim. Forsch., 8, 489, [1958]) and in rats (Morpurgo: Arch. Int. Pharmacodyn., 137, 87, [1962]).

[3] = system: rats; assay: Lick-conflict test (Vogel et al.), anxiolytic activity; format: in vivo; conditions: Rattus norvegicus, po, read-out: Minimal effective dose [MED] Lick conflict
From the text: (§4) The anxiolytic activity was studied in rats according to the "lick-conflict" test elaborated by Vogel et al. (Psychopharmacology, 21, 1, [1971] and the elevated plus-maze test described by Pellow (Pellow, J.: Neurosci. Meth. 14, 149, [1985]). The antiaggressive effect was investigated in mice using the "fighting behaviour" method of Tedeschi (J. Pharm. Exp. Ther., 125, 28, [1959]). The minimal effective dose (MED) values and the ED50 values obtained are shown in the following Table V.

[4] = system: mice; assay: Acute toxicity (dead/treated animals) in the Irwin test; format: in vivo
Experimental: as §1, §2

[5] = target: homophthalazine binding site; assay: Displacement of 3H-girisopam from the homophthalazine binding site in rat brain striatal membrane preparation; conditions: displacing 5 nM 3H-girisopam
Experimental: Ki values were calculated according to the following equation: Ki = IC50 :(1 +([L])/(KD)), [formula] wherein KD is the dissociation constant of the labelled ligand-receptor complex, [L] is the concentration of the labelled ligand and IC50 is the half maximal inhibitory concentration of the test compound.

[6] = system: Catalepsy in rats; assay: Cataleptic effect in rats (Morpurgo); format: in vivo; conditions: p.o.
Experimental: as §3

[7] = system: "climbing" reaction induced by 5,6,6a,7-tetra-(hydro)-6-(methyl)-4H-dibenzo[de,g]quinoline-10,11-di-(ol){apomorphine}; assay: Inhibition of apomorphine-induced climbing according to Puech et al.; format: in vivo
Experimental: (§5) The potential antipsychotic activity of 1-[2'-(substituted) vinyl]-5H-2,3-benzodiazepine derivatives according to the invention and of reference substances was tested according to the method of Puech et al. (Psychopharmacology, 75, 84, [1981] by measuring their inhibiting effect on the "climbing" reaction induced by 5,6,6a,7-tetra-(hydro)-6-(methyl)-4H-dibenzo[de,g]quinoline-10,11-di-(ol){apomorphine}. The results have been expressed as ED50 values. Since the inhibition of the spontaneous motor activity (SMA) is an important characteristic of the antipsychotic drugs, the ED50 values of a number of compounds were determined according to the method of Borsy et al. (Arch. Int. Pharmacodyn., 124, 1, 196).

[8] = system: spontaneous motor activity of mice; assay: Inhibition of spontaneous motor activity according to Borsy et al.; format: in vivo
Experimental: as §5
The effect of the 1-[2'-(substituted) vinyl]-5H-2,3-benzodiazepine derivatives according to the invention on the spontaneous motor activity was tested according to the method of Borsy et al. Groups consisting of 3 mice were treated orally with different doses of the compounds to be tested. Then the animals were placed into a 10-channel Dews system equipment, wherein the number of interruptions of infrared beam within 30 minutes was counted. […]

[9] = system: mice; assay: Fighting behaviour method of Tedeschi, antiaggressive effect; format: in vivo; conditions: Mus musculus, po, read-out: ED50 Fighting behaviour
From the text: as §4

[10] = system: rats; assay: Elevated plus-maze test (Pellow), anxiolytic activity; format: in vivo; conditions: Rattus norvegicus, ip, read-out: Minimal effective dose [MED] Elevated + Maze
From the text: as §4
The anxiolytic activity of these compounds was investigated in the elevated plus maze test. Male rats belonging to the Sprague Dawley strain and weighing 220 to 260 g were used as test animals. The test was carried out with the aid of a wooden plus-shaped maze elevated to a height of 50 cm and containing two enclosed and two open arms (50 cm long and 15 cm wide). After 60 minutes pretreatment the animals were placed into the maze and observed for 5 minutes. The drug effect was expressed as percent increase of the time spent on the open arms and number of open arm entries. The minimum effective dose (MED) which caused a significant increase of the time spent on the open arms was calculated for every substance [Pelow, S., Chopin, P., File, S.E., Briley, M.: J. Neurosci. Methods 14, 149 to 167 [1985]).

[11] = system: convulsions caused by 6,7,8,9-tetrahydro-5H-tetrazoloazepine [pentetrazole]; assay: Inhibition of pentetrazole-induced convulsions (modified method of Benziger and Hane); format: in vivo; conditions: Mus musculus, po, mice, read-out: ID50 (the source's name)
Experimental: The inhibiting effect against convulsions caused by 6,7,8,9-tetrahydro-5H-tetrazoloazepine [pentetrazole] was defined by the modified method of Benziger and Hane. Groups of male and female mice belonging to the NMRI strain and weighing 20 to 25 g were used. The tonic extensor convulsions of the hind limbs caused by intraperitoneally administered 125 mg/kg of 6,7,8,9-tetrahydro-5H-tetrazoloazepine [pentetrazole] were registered on the animals of groups consisting of 6 to 12 animals. The test compounds and the carrier were administered 1 hour before administering the 6,7,8,9-tetrahydro-5H-tetrazoloazepine [pentetrazole] (Benziger, R., Hane, D.: Arch. Int. Pharmacodyn. 167, 245 [1967]).

[12] = Cataleptic effect in mice (Schlichtegroll); format: in vivo; conditions: mouse, in vivo, Tables III and IV compared, read-out: dose causing catalepsy on mice relative to the spontaneous motor activity (SMA) decreasing ED50 dose
Experimental: as §3

[13] = po; read-out: {apomorphine} Climbing ED50
[14] = Mus musculus, po; read-out: Spontaneous motor activity SMA ED50
[15] = Mus musculus, po, read-out: Spontaneous motor activity SMA ED50
[16] = po, read-out: {apomorphine} Climbing ED50

COc1ccc(C=CC2=NN=C(C)Cc3cc(OC)c(OC)cc32)cc1OC [Example 3, 1-[3',4'-Di-(methoxy)-styryl]-4-[methyl]-7,8-di-[methoxy]-5H-2,3-benzodiazepine]
Behaviour ([1]; 300 mg/kg i.p.): + + | Behaviour ([1]; 1000 mg/kg p.o.): + + | Catalepsy in mice Minimal effective dose [MED] [2]: 100 mg/kg | minimal effective dose ([3]; rats): 0.1 mg/kg | acute toxicity (dead/treated animals) ([4]; 300 mg/kg i.p.): 5/6 | acute toxicity (dead/treated animals) ([4]; 1000 mg/kg p.o.): 5/6 | Ki [5]: 11 nM | Catalepsy in rats Minimal effective dose [MED] [6]: >100 mg/kg | ED50 [7, 13]: 6.7 mg/kg | ED50 [8, 14]: 8.2 mg/kg

COc1cc2c(cc1OC)C(C=Cc1ccc(N(C)C)cc1)=NN=C(C)C2 [Example 4, 1-[4'-(Dimethylamino)-styryl)-4-[methyl]-7,8-di-[methoxy]-5H-2,3-benzodiazepine]
Behaviour ([1]; 300 mg/kg i.p.): + + | Behaviour ([1]; 1000 mg/kg p.o.): + + | ED50 ([9]; mice): 7.4 mg/kg | Catalepsy in mice Minimal effective dose [MED] [2]: >100 mg/kg | minimal effective dose ([10]; rats): 5 mg/kg | minimal effective dose ([3]; rats): 0.3 mg/kg | acute toxicity (dead/treated animals) ([4]; 300 mg/kg i.p.): 1/5 | acute toxicity (dead/treated animals) ([4]; 1000 mg/kg p.o.): 1/5 | Ki [5]: 11 nM | Catalepsy in rats Minimal effective dose [MED] [6]: >100 mg/kg | ED50 [7, 13]: 9.1 mg/kg | ED50 [8, 14]: 4.1 mg/kg

COc1ccc(C=CC2=NN=C(C)Cc3cc(OC)c(OC)cc32)c(OC)c1 [Example 5, 1-[2',4'-Di-(methoxy)-styryl)-4-[methyl]-7,8-di-[methoxy]-5H-2,3-benzodiazepine]
Behaviour ([1]; 300 mg/kg i.p.): + + | Behaviour ([1]; 1000 mg/kg p.o.): + + | ED50 ([9]; mice): 15 mg/kg | minimal effective dose ([10]; rats): 1.25 mg/kg | acute toxicity (dead/treated animals) ([4]; 300 mg/kg i.p.): 0/5 | acute toxicity (dead/treated animals) ([4]; 1000 mg/kg p.o.): 0/5 | Ki [5]: 18 nM

COc1cc2c(cc1OC)C(C=Cc1cc(OC)c(OC)c(OC)c1)=NN=C(C)C2 [Example 6]
Behaviour ([1]; 300 mg/kg i.p.): + | Behaviour ([1]; 1000 mg/kg p.o.): + | Catalepsy in mice Minimal effective dose [MED] [2]: >100 mg/kg | minimal effective dose ([3]; rats): 1 mg/kg | acute toxicity (dead/treated animals) ([4]; 300 mg/kg i.p.): 0/6 | acute toxicity (dead/treated animals) ([4]; 1000 mg/kg p.o.): 0/6 | Ki [5]: 11 nM | Catalepsy in rats Minimal effective dose [MED] [6]: >100 mg/kg | ED50 [7, 13]: 15 mg/kg | ED50 [8, 14]: 9.3 mg/kg

COc1cc2c(cc1OC)C(C=Cc1ccccc1F)=NN=C(C)C2 [Example 10]
Behaviour ([1]; 300 mg/kg i.p.): + | Behaviour ([1]; 1000 mg/kg p.o.): + | Catalepsy in mice Minimal effective dose [MED] [2]: >100 mg/kg | minimal effective dose ([3]; rats): 3 mg/kg | acute toxicity (dead/treated animals) ([4]; 300 mg/kg i.p.): 0/6 | acute toxicity (dead/treated animals) ([4]; 1000 mg/kg p.o.): 0/6 | Ki [5]: 9 nM | Catalepsy in rats Minimal effective dose [MED] [6]: >100 mg/kg

COc1cc2c(cc1OC)C(C=Cc1ccc(C#N)cc1)=NN=C(C)C2 [Example 57]
Catalepsy in mice Minimal effective dose [MED] [2]: >100 mg/kg | minimal effective dose ([3]; rats): 1 mg/kg | Ki [5]: 18 nM | Catalepsy in rats Minimal effective dose [MED] [6]: >100 mg/kg

COc1cc2c(cc1OC)C(C=Cc1cccs1)=NN=C(C)C2 [Example 70]
Behaviour ([1]; 300 mg/kg i.p.): + + | Behaviour ([1]; 1000 mg/kg p.o.): + | Catalepsy in mice Minimal effective dose [MED] [2]: >100 mg/kg | minimal effective dose ([3]; rats): 0.3 mg/kg | acute toxicity (dead/treated animals) ([4]; 300 mg/kg i.p.): 2/6 | acute toxicity (dead/treated animals) ([4]; 1000 mg/kg p.o.): 0/6 | Ki [5]: 13 nM | Catalepsy in rats Minimal effective dose [MED] [6]: >100 mg/kg

COc1cc2c(cc1OC)C(C=Cc1ccc(N)cc1)=NN=C(C)C2 [Example 73, 1-[4'-(Amino)-styryl]-4-[methyl]-7,8-di-[methoxy]-5H-2,3-benzodiazepine]
ED50 ([9]; mice): 6.4 mg/kg | minimal effective dose ([10]; rats): 2.5 mg/kg | Ki [5]: 11 nM | ED50 [7, 13]: 1.8 mg/kg

COc1cc2c(cc1OC)C(C=Cc1ccc(NC(C)=O)cc1)=NN=C(C)C2 [Example 84, 1-[4'-(Acetylamino)-styryl]-4-[methyl]-7,8-di-[methoxy]-5H-2,3-benzodiazepine]
Behaviour ([1]; 300 mg/kg i.p.): + + | Behaviour ([1]; 1000 mg/kg p.o.): + + | acute toxicity (dead/treated animals) ([4]; 300 mg/kg i.p.): 0/5 | acute toxicity (dead/treated animals) ([4]; 1000 mg/kg p.o.): 1/5 | Ki [5]: 5 nM | ED50 [7, 13]: 11 mg/kg

NC(=O)N1c2ccccc2C=Cc2ccccc21 [carbamazepine, 5H-dibenz[b,f]azepine-5-carboxamide]
ED50 [11]: 7.1 mg/kg

CNC1=Nc2ccc(Cl)cc2C(c2ccccc2)=[N+]([O-])C1 [chlorodiazepoxide, 7-(chloro)-2-(methylamino)-5-(phenyl)-3H-1,4-benzodiazepine-4-(oxide), reference compound]
ED50 [9]: 9.2 mg/kg | minimal effective dose [10]: 2.5 mg/kg | minimal effective dose [3]: 5 mg/kg | {apomorphine} Climbing ED50 ([7]; p.o.): inactive | ED50 [8, 15]: 56 mg/kg

CN(C)CCCN1c2ccccc2Sc2ccc(Cl)cc21 [chlorpromazine, 2-(chloro)-10-(3'-〈dimethylamino〉-propyl)-phenothiazine, reference compound]
selectivity ratio [12]: 5 | Catalepsy in mice Minimal effective dose [MED] [2]: 10 mg/kg | Catalepsy in rats Minimal effective dose [MED] [6]: 20 mg/kg | ED50 [7, 16]: 1.1 mg/kg | ED50 [8, 15]: 2 mg/kg

COc1cc2c(cc1OC)C(c1cccc(Cl)c1)=NN=C(C)C2 [girisopam, 1-(3'-〈chloro〉-phenyl)-4-(methyl)-7,8-di-(methoxy)-5H-2,3-benzodiazepine, reference compound]
Behaviour ([1]; 300 mg/kg i.p.): +- | ED50 [9]: 7.7 mg/kg | minimal effective dose [10]: 12.5 mg/kg | minimal effective dose [3]: 10 mg/kg | acute toxicity (dead/treated animals) ([4]; 300 mg/kg i.p.): 0/6 | Ki [5]: 40 nM | ED50 [7, 16]: 12 mg/kg | ED50 [8, 15]: 10 mg/kg

COc1cc2c(cc1OC)C(c1ccc(N)cc1)=NN=C(C)C2 [nerisopam, 1-(4'-〈amino〉-phenyl)-4-(methyl)-7,8-di-(methoxy)-5H-2,3-benzodiazepine, reference compound]
Behaviour ([1]; 300 mg/kg i.p.): + + | ED50 [9]: 4 mg/kg | Catalepsy in mice Minimal effective dose [MED] [2]: 40 mg/kg | minimal effective dose [10]: 0.3 mg/kg | minimal effective dose [3]: 0.3 mg/kg | acute toxicity (dead/treated animals) ([4]; 300 mg/kg i.p.): 5/6 | Catalepsy in rats Minimal effective dose [MED] [6]: 60 mg/kg | ED50 [7, 16]: 0.9 mg/kg | ED50 [8, 15]: 2.5 mg/kg
